According to US20140194484A1, “Method of Treating Cachexia and Sarcopenia” (priority 2012, published 2014):
“Also recorded” adds a separate entry of the source.

Columns and labels:
[1] = test system: patients with cachexia related to late stage colorectal cancer (CRC) or non-small cell lung cancer (NSCLC); format: in vivo, human
Protocol: An international multicentre, randomised, double blind, placebo controlled clinical trial was conducted with three parallel treatment groups with dose escalation within each group. Male and female patients aged between 25 to 80 years of age with cachexia related to underlying progressive or recurrent late stage colorectal cancer (CRC) or non-small cell lung cancer (NSCLC) were treated for 16 weeks with either S-pindolol or placebo. All patients received standard of care chemotherapy, radiotherapy and supportive care throughout the study at the discretion of their treating physician.
After provision of written informed consent, patients were assessed for eligibility at screening visits occurring from days -8 to -1. All eligible patients with written informed consent were given a set of performance tests [stair climbing power (SCP), hand grip strength (HGS), short performance battery test (SPBT) and the six minute walk test (SMWT)] and receive a 7 day course of placebo (1 tablet two times per day). Patients able to adequately complete the performance tests and with at least 80% compliance after 7 days (tablet count: at least […]) were then randomised on Day 0 to one of three treatment groups. All patients attended for visits on days 7, 14, 21, 28, (each +/−1 day), 56, 84, 112, and 140 (each +/−7 days).
The dose of S-pindolol or placebo was escalated by the investigator in a blinded fashion as described below under the heading “Dose Escalation”. The maximum period of drug titration was 4 weeks and the minimum period was 2 weeks. The patients were required to attend study visits at 1 week intervals after the start of the titration phase until completion of dose escalation. The aim of dose escalation for all subjects is to reach the target dose of 8 tablets per day (4 tablets bd) or the maximum tolerated dose for a particular patient within the first 4 week period. Dose titration was achieved by varying the number of tablets taken from bottle 2. This was done such that patients will be randomised to receive either placebo, 2.5 mg S-pindolol twice daily, 5 mg S-pindolol twice daily, 7.5 mg S-pindolol twice daily, or 10 mg S-pindolol twice daily according to tolerance of the study drug.
• S-pindolol or placebo was administered over a 16 week period. The treatment regimens for the study are summarised below. • At regular monitoring visits, a study monitor checked that all code-break envelopes remained intact.
• Product was taken orally with food as prescribed two times daily
A SMWT was conducted on days 0, 28, 56, 84 and 112. The SMWT was conducted as described by Paul L Enright (Respiratory Care, August 2003 Vol 48 No 8)^12. A straight, level and even area at least 20 meter long and 2 meters wide was marked out at each investigational site and used for the SMWT for all subjects at each time point. Identical chairs were placed at each end of the 20 meter track.
The SCP test was conducted on days 0, 28, 56, 84 and 112. The SCP test was modified from that described by Bean et al (Arch Phys Med Rehabil Vol 88, May 2007) to account for the different stairway configurations at the investigational sites.
A HGS test was conducted on days 0, 28, 56, 84 and 112. The HGS test was modified from that described by Bassey (1990; NIH, 1990). A standard handgrip dynamometer (provided by Sponsor) that can be adjusted for hand size was used at all sites. Both hands were alternately measured in triplicate, followed by a fourth attempt on the dominant hand only. After an explanation the subject squeezed the handle as forcefully as possible for a few seconds and then released. Subjects were encouraged verbally using a standard script and the best score (in kilograms) of the dominant hand recorded in the CRF.
DEXA was performed at selected DEXA scan centres on days at day -1, 56 and 112.
The maximum period of drug titration was 4 weeks and the minimum period was 2 weeks. […]

[2] = test system: pre-clinical models of cancer cachexia; assay: pre-clinical models of cancer cachexia; format: in vivo
[3] = high dose (10 mg bd), ITT population, DEXA
[4] = compared with other β blockers studied

## CC(C)NC[C@H](O)COc1cccc2[nH]ccc12 [S-pindolol]
[1]; 2.5 and 10 mg bd vs placebo
  Six minute walk test change: trend towards dose response
  Stair climbing power change: trend towards dose response
[1]; high dose (10 mg bd), ITT population
  Hand Grip Strength change, efficacy compared to placebo: statistically significant
[1]; high dose (10 mg bd), ITT population, 16 weeks
  Absolute weight change (primary endpoint), efficacy compared to placebo: statistically significant
[1]; [3]
  Fat mass change, efficacy compared to placebo: statistically significant
  Lean mass change, efficacy compared to placebo: statistically significant
[1]; low dose, high dose MT-102 and placebo arms
  survival, difference between arms (FIG. 7): No significant differences in survival
[2]; FIG. 4
  benefit compared to placebo and racemic pindolol (FIG. 4): particularly beneficial
[2]; [4]
  effects on aspects of cancer cachexia: significant effects on all aspects
  impact upon survival: greatest impact upon survival
[2]; dose for dose basis, treatment of cachexia
  efficacy compared with racemic pindolol: superior efficacy to the racemic parent material; also recorded: better effects than racemic pindolol
